Source: patent publication US8906921B2, “4-alkoxypyridazine derivatives as fast dissociating dopamine 2 receptor antagonists” (Janssen Pharmaceutica NV, priority 2007, dated 2014)
Counter-ions that a name gives are not always drawn.

melting point	SMILES
150.7 °C	COc1cc(Cl)nnc1NC1CCN(Cc2cc(F)c(F)c(F)c2)CC1
130.5 °C	COc1cc(Cl)nnc1NC1CCN(Cc2ccc(F)c(F)c2)CC1
211.3 °C	COc1cc(C(F)(F)F)nnc1NC1CCN(Cc2cccc(C(F)(F)F)c2)CC1 (as salt: hydrochloride)
121.5 °C	COc1cc(Cl)nnc1NC1CCN(Cc2cc(F)cc(C(F)(F)F)c2)CC1
